Results on 8 compounds are retold here after patent publication US5187277A, “DL-3-[4-[4-(2-pyridyl)-1-piperazinyl]-butyl]-1,8,8-trimethyl-3-az abicyclo[(3]octane-2,4-dione having psychotropic and antiemetic effect” (priority 1990, dated 1993).

For orientation: ED50 means the dose that gives a 50% effect, or the effect in half of the subjects. As a reminder, the LD50 is the dose expected to kill half of the subjects tested.

The structures appear in SMILES notation. Counter-ions that a name gives are not always drawn. Like-named read-outs stand apart in the source and are kept apart here. Where only a bound is given, the exact number is not on record here.

Data set [1] in a line: sedative activity, suppression of motor activity (spontaneous locomotion). Format: in vivo. The conditions noted are these: for ED50: ip, read-out: Sedative activity ED50, suppression of motor activity.
A further data set deals with rats (conflict tests). The data set is described as follows: anxiolytic activity in conflict situation model. Format: in vivo. To be noted: for minimal effective dose: Rattus norvegicus, read-out: Anxiolytic activity MED in conflict tests. As to the method: (§1) The compounds were introduced intraperitoneally and orally 20-60 minutes before the beginning of the test. The minimum effective doses (MED) increasing the number of water takings and increasing the period of staying in an illuminated area by at least 50%, were determined. The neuroleptic activity was detected and measured using the "rat fight" method and the "climbing" test of mice (P. Protais et al. Psychopharmacology, 50, p. 1, 1976). […] The antiemetic effect on vomiting caused by apomorphine or cisplatin was studied in pigeons (P. Presiosi et al., Arch. Int. Pharmacodyn., 298, p. 301, 1989) and mongrel dogs having a weight of 6-8 kg.

In a further data set the test system is mice. Put plainly: antiapomorphine activity in "climbing" test of mice. To be noted: for ED50: Mus musculus, ip, read-out: Antiapomorphine activity in "climbing" test ED50. It is filed as in vivo. As for the experimental part:
as §1

Data set [2] can be described thus: sedative activity, suppression of orientation behaviour. It is filed as in vivo. The conditions noted are these: ip, read-out: Sedative activity ED50, suppression of orientation behaviour.
The nature of data set [3]: cataleptogenic (extrapyramidic) activity. To be noted: in vivo.
Data set [4] is described as follows: myorelaxation activity, rotating rod test. Format: in vivo. The conditions noted are these: for ED50: ip, read-out: Myorelaxation activity ED50.
Data set [5] deals with mongrel dogs. The data set is described as follows: antiemetic activity, vomiting caused by apomorphine in dogs. It is filed as in vivo. The conditions noted are these: Canis lupus familiaris; dog tests. As to the method: as §1
The test system of data set [6] is mongrel dogs. The data set is described as follows: antiemetic activity, vomiting caused by cisplatin in dogs. It is filed as in vivo. To be noted: Canis lupus familiaris; dog tests. As for the experimental part:
as §1

Data set [7] concerns rats (avoiding illuminated area tests). The data set is described as follows: anxiolytic activity by the method of avoiding illuminated areas. It is filed as in vivo. The conditions noted are these: for minimal effective dose: Rattus norvegicus, read-out: Anxiolytic activity MED in "avoiding illuminated area" tests. As for the experimental part:
as §1

Data set [8] deals with pigeons. The data set is described as follows: antiemetic activity, vomiting caused by cisplatin in pigeons. It is filed as in vivo. The conditions noted are these: Columbidae, ip, read-out: Antiemetic activity, ED50. As for the experimental part: as §1
The conditions of data set [9]: from Table 2.
Data set [10] in a line: hexobarbital-potentiation effect (narcosepotentiation, nonnarcotic dose of hexobarbital). It is filed as in vivo. To be noted: for ED50: read-out: Hexobarbital-potentiation effect ED50.
Another data set can be described thus: in vivo. To be noted: ip.
In a further data set the test system is rat. The data set is described as follows: antiaggressive activity ("rat fight" method). Format: in vivo. The conditions noted are these: for ED50: Rattus norvegicus, read-out: Antiaggressive activity ED50. As for the experimental part:
as §1

Data set [11] in a line: effect characteristic of tranquilizers and neuroleptics (anxiolytic, antiaggressive, antiapomorphine and hexobarbital-potentiation effects). Format: in vivo. The conditions noted are these: systematic application of dihydrochloride. As to the method:
as §1

Data set [12] relates to pigeons. Put plainly: antiemetic activity, vomiting caused by apomorphine in pigeons. It is filed as in vivo. The conditions noted are these: for ED50: Columbidae, ip, read-out: Antiemetic activity, ED50. As to the method: as §1
Setting [13] is: ip, rats, i/p, minimum effective dose increasing number of water takings by at least 50%, dihydrochlorides of I, VI, VII.
Where [14] appears, read: po, rats, orally, minimum effective dose increasing number of water takings by at least 50%, dihydrochlorides of I, VI, VII.
The mark [15] stands for this setting: ip, rats, i/p, minimum effective dose increasing period of staying in illuminated area by at least 50%.
[16] abbreviates: po, rats, orally, minimum effective dose increasing period of staying in illuminated area by at least 50%.
The mark [17] stands for this setting: pigeons, vomiting caused by cisplatin, i/p.
Setting [18] is: pigeons, vomiting caused by apomorphine, i/p.

For the compound `CC12CCC(C(=O)N(CCCCN3CCN(c4ccccn4)CC3)C1=O)C2(C)C` (racemic) [Compound I, DL-3-[4-[4-(2-pyridyl)-1-piperazinyl]-butyl]-1,8,8-trimethyl-3-azabicyclo[3,2,1]octane-2,4-dione dihydrochloride], in data set [1] (from Table 2), the “sedative activity compared with diazepame” value is “much lower than the activity and toxicity of diazepame”. Also, the 50% effective dose (ED50) in data set [1] (i/p) was found to be 2.8 ± 0.7 mg/kg; in the data set with mice (mice, i/p) it was 0.7 ± 0.13 mg/kg; in [2] (i/p), 3.9 ± 0.9 mg/kg; in data set [4] (i/p), 44.5 ± 10 mg/kg; in the data set on mongrel dogs [5], 0.02 ± 0.006 mg/kg; in the data set with mongrel dogs [6] it was 0.013 ± 0.005 mg/kg. In addition, the 50% effective dose (ED50) in the data set on pigeons [8] (setting [17]) turned out to be 0.4 ± 0.07 mg/kg; in [10] (ip, i/p), 17.6 ± 2.9 mg/kg; in data set [10] (po, orally) it was 12.5 ± 3.14 mg/kg; in the data set with rat (ip, i/p), 7.45 ± 1.6 mg/kg; in the data set on rat (po, orally), 30.8 ± 4.14 mg/kg; in the data set on pigeons [12] (setting [18]), 0.11 ± 0.02 mg/kg. Besides, the minimal effective dose turned out to be 1 mg/kg with rats (conflict tests) (setting [13]), 3 mg/kg in the data set with rats (conflict tests) (setting [14]), 1 mg/kg in [7] (setting [15]) and 10 mg/kg in data set [7] (setting [16]). Moreover, in the data set on rats (conflict tests) (conflict situation model), the “antianxiety activity relative to buspirone and said bicyclic imides” value is listed as “three times as large”. In addition, the “anxiolytic doses compared with diazepame” value in the data set with rats (conflict tests) (intraperitoneally) was “coincide with the similar doses of diazepame”. Moreover, the “anxiolytic activity relative to compounds VI, VII” value in the data set on rats (conflict tests) (two anxiety models, intraperitoneally, conflict test) is listed as “three times as large”; in data set [7] (two anxiety models, intraperitoneally, avoiding illuminated area), “three times as large”. Besides, in the data set with mice (climbing test), the “climbing test activity relative to buspirone and bicyclic imides” value is on record as “two to four times as large”. Besides, in the data set on mice (mouse, in vivo), the “apomorphine antagonism in "climbing" test compared with haloperidol” value is “comparable to haloperidol”. Further, the “cataleptogenic (extrapyramidic) activity” value in [3] was “free of cataleptogenic (extrapyramidic) activity”. In addition, the “myorelaxation activity compared with diazepame” value in data set [4] (from Table 2) was “much lower than the activity and toxicity of diazepame”. Besides, the “toxicity compared with diazepame” value in data set [9] is “much lower than the activity and toxicity of diazepame”. In addition, in [10] (in vivo), the “hexobarbital-potentiating activity compared with diazepame” value was “essentially lower than the activity of diazepame”. Also, the LD50 in the data set “in vivo” stood at 208 ± 20 mg/kg. In addition, the “antiaggressive activity relative to buspirone and bicyclic imides” value in the data set on rat (antiaggressive test) was “two to four times as large”. The “dose range producing anxiolytic, antiaggressive, antiapomorphine and hexobarbital-potentiation effects” value in data set [11] is listed as 0.1-50 mg/kg of a body weight. The “antiemetic effect relative to all comparable compounds (haloperidol, triphthazine, metoclopramide)” value with pigeons [12] (fold, versus haloperidol, triphthazine, metoclopramide, emetogen not specified (apomorphine or cisplatin)) is 10-100 times. The “antiemetic and antiapomorphine activities compared with other compounds” value in the data set with pigeons [12] (pigeons, from Table 3) was “substantially higher than those of other compounds”.

With `CC12CCC(C(=O)N(CCCCN3CCN(c4ncccn4)CC3)C1=O)C2(C)C` (racemic) [VII, DL-3-[4-(2-pyrimidinyl)-1-piperazinyl]-butyl]-1,8,8-trimethyl-3azabic yclo[3,2,1]octane-2,4-dione], the ED50 in [1] (i/p) came to 5.4 ± 2.3 mg/kg; with mice (mice, i/p) it was 1.31 ± 0.15 mg/kg; in [2] (i/p), 7.7 ± 1.6 mg/kg; in data set [4] (i/p), 52.5 ± 12 mg/kg; in the data set on pigeons [8] (setting [17]), 4.6 ± 0.8 mg/kg; in data set [10] (ip, i/p), 11.9 ± 2.2 mg/kg. The ED50 in [10] (po, orally) is 36.5 ± 8.11 mg/kg; with rat (ip, i/p), 28.5 ± 4.2 mg/kg; with rat (po, orally) it was 81.5 ± 8.3 mg/kg; in the data set with pigeons [12] (setting [18]), 1.8 ± 0.4 mg/kg. For the same compound, the minimal effective dose stood at 3 mg/kg in the data set on rats (conflict tests) (setting [13]), 3 mg/kg in the data set on rats (conflict tests) (setting [14]), 3 mg/kg in data set [7] (setting [15]) and 10 mg/kg in data set [7] (setting [16]). For the same compound, the 50% lethal dose (LD50) in the data set “in vivo” came to 211 ± 31 mg/kg.

Consider `CN1C(=O)CN=C(c2ccccc2)c2cc(Cl)ccc21` [Diazepame], for which the median effective dose (ED50) in data set [1] is 0.6 ± 0.2 mg/kg; in data set [2] it was 0.6 ± 0.2 mg/kg; in data set [4], 2.4 ± 0.2 mg/kg; in data set [10] (ip), 0.3 ± 0.1 mg/kg; in data set [10] (po), 0.48 ± 0.12 mg/kg; in the data set on rat (po), 5.9 ± 1.28 mg/kg. For the same compound, the minimal effective dose (with rats (conflict tests) (ip); in data set [7] (ip); in data set [7] (po)) was 1 mg/kg in each case.

Turning to `O=C(CCCN1CCC(O)(c2ccc(Cl)cc2)CC1)c1ccc(F)cc1` [Haloperidol], the minimal effective dose with rats (conflict tests) (ip) is above 3 mg/kg. The 50% effective dose (ED50) is 0.67 ± 0.06 mg/kg in the data set on mice, 4.4 ± 0.9 mg/kg in the data set with pigeons [8] and 3.4 ± 0.5 mg/kg in the data set on pigeons [12].

Turning to `CCN(CC)CCNC(=O)c1cc(Cl)c(N)cc1OC` [Metoclopramide], the values for the ED50 in the data set on pigeons [8] (setting [17]) and with pigeons [12] (setting [18]) were 9.7 ± 1.1 mg/kg and 12 ± 1.7 mg/kg, respectively.

`CCN1CCCC1CNC(=O)c1cc(S(N)(=O)=O)ccc1OC` (centres unmarked) [Sulpyride]: the ED50 with mice (mice, i/p) came out at 8.4 ± 1.3 mg/kg; in the data set on rat (ip, i/p) it was 60.6 ± 16.6 mg/kg.

Take `CN1CCN(CCCN2c3ccccc3Sc3ccc(C(F)(F)F)cc32)CC1` [Trifluoperazine]: the 50% effective dose (ED50) with pigeons [8] (setting [17]) worked out at 5.5 ± 0.9 mg/kg; in the data set on pigeons [12] (setting [18]) it was 4.6 ± 0.8 mg/kg.

With `O=C1CC2(CCCC2)CC(=O)N1CCCCN1CCN(c2ncccn2)CC1` [VI, 8-[4-[4-(2-pyrimidinyl)-1-piperazinyl]butyl]-8-azaspiro[4,5]decane-7 ,9-dione], the ED50 is 8.7 ± 1.8 mg/kg in [1] (i/p); 2.6 ± 0.46 mg/kg in the data set with mice (mice, i/p); 7.6 ± 1.9 mg/kg in [2] (i/p); 54.2 ± 8.1 mg/kg in [4] (i/p); 8.2 ± 2.4 mg/kg in [10] (ip, i/p). For the same compound, the minimal effective dose (in the data set with rats (conflict tests) (setting [13]); in data set [7] (setting [15])) was 3 mg/kg each time. Moreover, the median lethal dose (LD50) in “in vivo” is 140 ± 20 mg/kg.
